Among the data in PubChem BioAssay (NCI) are TGI and GI50 values, retold here.

“And” between values parts separate entries of the source, which are not always exact repeats. Equal entries are not always repeated.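 Compound exposure: 48 hours, 5 concentrations, 96-well plates. GI50: concentration for 50% inhibition of growth. TGI: total growth inhibition.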 Some results are limits rather than exact numbers.

Assay in all cases: DTP human tumour cell line panel, 48 h
For experiment [1], the system named is 786-0 renal.
Experiment [2] deals with A498 renal.
Experiment [3] has as its system ACHN renal.
The subject of experiment [4] is HOP-92 NSCLC.
The subject of experiment [5] is MALME-3M melanoma.
The subject of experiment [6] is RXF 393 renal.
In experiment [7] the test system is SF-268 CNS.
The test system of experiment [8] is SNB-75 CNS.
For experiment [9], the system named is NCI-H522 lung.

For `COc1c(C=O)c2c(c(OC)c1OC)-c1ccc(OC)c(=O)cc1[C@@H](NC(C)=O)CC2`, the TGI in [1] is above 75.6 µM; in experiment [2] it was 14.8 µM; in experiment [3], above 100 µM; in [4], 7.18 µM; in experiment [5] it was above 100 µM; in experiment [6] it was above 56.3 µM. In addition, the TGI is 30.3 µM in [7] and above 100 µM in [8].

Turning to `O=C(Nc1ccccc1-c1n[nH]c(=S)[nH]c1=O)C(F)(F)F`, the TGI in experiment [1], in experiment [3], in [4], in experiment [5], in [9] and in experiment [6] was above 100 µM each time. Also, the TGI in experiment [7] and in [8] was above 100 µM each time.

Consider `O=C(Nc1ccc(Cl)cc1Cl)C1C(=O)N(c2ccc(Cl)cc2Cl)C(=O)/C1=N\Nc1ccc([N+](=O)[O-])cc1[N+](=O)[O-]` (stereo unspecified), for which the TGI in experiment [1] is above 100 µM; in experiment [2], above 100 µM; in experiment [3], above 100 µM; in [4], 62.3 µM; in [5], above 100 µM; in experiment [9], 71 µM. In addition, the results for the concentration for total growth inhibition (TGI) in [7] and in [8] were above 100 µM and 97.7 µM, respectively.

For `Cc1cccc(NC(=O)CCc2ccc(N3C(N)=NC(N)=NC3(C)C)cc2)c1`, the GI50 in experiment [1] was 18.9 µM; in experiment [2] it was above 65.6 µM; in experiment [3] it was above 100 µM; in experiment [4], 26 µM; in experiment [5], above 46.9 µM; in experiment [6], above 42.1 µM. The GI50 in [7] is 0.547 µM. Also, the TGI in [1], in experiment [2], in experiment [3], in [4], in [5] and in [6] was above 100 µM in each case. The TGI in [7] and in experiment [8] was above 100 µM in each case.

Turning to `Nc1ccc2c(c1)C(=O)C(=O)c1c-2nc2ccccn12`, the GI50 in [1] was 2.24 µM; in experiment [2], 1.57 µM; in experiment [3], 1.22 µM; in experiment [4] it was 2 µM; in experiment [5], 0.271 µM; in experiment [6], 1.6 µM. In addition, the GI50 in [8] is 1.04 µM. In addition, the TGI was 4.86 µM in [1]; 3.37 µM in [2]; 2.46 µM in [3]; 4.21 µM in [4]; 0.572 µM in experiment [5]; 2.99 µM in [6]. Also, the TGI in [8] was 2.28 µM.

`Cc1nc(-c2cccc(Nc3nc(-c4ccc(Cl)cc4)cs3)c2)cs1`: the GI50 was 10.9 µM in experiment [1]; 12.3 µM in experiment [2]; 10.1 µM in experiment [3]; 17.1 µM in experiment [4]; 8.8 µM in experiment [9]; 9.63 µM in experiment [6]. Besides, the GI50 in [7] was 10.4 µM. Further, the TGI in experiment [1] was 21.8 µM; in experiment [2], 20.9 µM; in experiment [3], 17.5 µM; in experiment [4] it was above 50 µM; in experiment [9], 19 µM; in experiment [6] it was 19 µM. Further, the TGI in [7] was 24.2 µM.

For `COc1ccc(C(=O)c2cc(OC)c(OC)c(OC)c2)cc1`, the TGI in [1] was above 79.2 µM; in experiment [3], above 91.3 µM; in [4], above 100 µM; in experiment [5], above 100 µM; in [9], 0.238 µM; in experiment [6] it was above 100 µM. Further, the results for the TGI in experiment [7] and in [8] were above 86.8 µM and 0.988 µM, respectively.

With `Clc1ncnc(Cl)c1Cl`, the TGI in [1], in experiment [3], in experiment [4], in [5], in experiment [9] and in [6] was above 100 µM each time. The TGI in [7] and in experiment [8] was above 100 µM each time.

As to `COc1cccc(C2c3cc4c(cc3OC(C)(N3CCCC3)C2C)OCO4)c1OC` (stereo unspecified), the TGI in [1] was above 100 µM; in experiment [3], 31.6 µM; in experiment [4], 71.2 µM; in experiment [5], 66.5 µM; in [9], 52.3 µM; in experiment [6], 86.7 µM. In addition, the figures for the TGI in experiment [7] and in experiment [8] were 81.3 µM and 94.3 µM, respectively.

As for `O=C(Nc1c(O)[nH]c(=S)[nH]c1=O)c1ccccc1F`, the TGI in [1], in experiment [2], in experiment [3], in [4], in [5] and in [9] was above 100 µM throughout. Further, the TGI in experiment [7] and in [8] was above 100 µM in each case.

On to `CCCCC[C@H](O)/C=C/[C@@H]1[C@@H](C/C=C\CCCC(=O)O)[C@@H](O)C[C@H]1O`, for which the GI50 in [1], in experiment [2], in [3], in experiment [4], in [5] and in [9] was above 100 µM in each case. The GI50 in experiment [6] and in experiment [7] was above 100 µM each time. For the same compound, the TGI in [1], in experiment [2], in experiment [3], in experiment [4], in experiment [5] and in experiment [9] was above 100 µM in each case. For the same compound, the TGI in experiment [6] and in [7] was above 100 µM in each case.

Take `COc1cc(C2c3[nH]c4ccccc4c3C[C@H]3COC(=O)N23)cc(OC)c1OC` (stereo partly specified): the GI50 in experiment [1] is below 0.01 µM; in experiment [2], below 0.01 µM; in experiment [3] it was below 0.01 µM; in experiment [4] it was 0.0184 µM; in experiment [5], below 0.01 µM; in experiment [9] it was below 0.01 µM. The GI50 in experiment [7] and in experiment [8] was below 0.01 µM throughout. The concentration for total growth inhibition (TGI) in experiment [1] is above 100 µM; in experiment [3] it was above 100 µM; in experiment [4], above 100 µM; in [5] it was above 100 µM; in experiment [9] it was 0.04 µM and < 0.01 µM; in experiment [7], above 100 µM. The same compound yielded a TGI in experiment [8] above 100 µM.

As for `NC(=O)NNCc1ccccc1`, the TGI in experiment [1], in experiment [2], in experiment [3], in experiment [4], in experiment [9] and in [6] was above 100 µM each time. The concentration for total growth inhibition (TGI) in [7] is above 100 µM.

For the compound `O=C1C(Cl)=C(Nc2cccc(Cl)c2)C(=O)N1Cc1ccccc1`, the GI50 was 3.85 µM in experiment [1]; 10.6 µM in experiment [2]; 14 µM in [3]; 5.36 µM in [4]; 5.12 µM in experiment [5]; 14.2 µM in experiment [9]. In addition, the GI50 in experiment [6] was 1.36 µM; in [7], 6.76 µM. Also, the TGI in experiment [1] was 16.2 µM; in experiment [2], 22.7 µM; in [3] it was 28.8 µM; in [4], 26.3 µM; in [5] it was 20.1 µM; in experiment [9] it was above 100 µM. Moreover, the TGI in experiment [6] amounted to 7 µM; in experiment [7] it was 22.2 µM.

With `COc1ccc(C2CC(c3cc(OC)c(OC)c(OC)c3)=NO2)cc1OCCCCOc1cc2c(cc1OC)C(=O)N1CCC[C@H]1C=N2` (stereo partly specified), the GI50 in [1] is 1.57 µM; in experiment [2], 1.72 µM; in experiment [3] it was 2.41 µM; in experiment [4], 2.47 µM; in experiment [9] it was 0.61 µM; in experiment [6], 1.39 µM. Besides, the GI50 was 1.89 µM in experiment [7] and 1.71 µM in experiment [8]. Also, the TGI in experiment [1] is 2.99 µM; in experiment [2], 3.22 µM; in experiment [3], 5.71 µM; in experiment [4] it was 10.3 µM; in [9], 2.28 µM; in experiment [6], 2.72 µM. Also, the TGI in experiment [7] amounted to 4.16 µM; in [8] it was 3.29 µM.

As to `CN(C)c1ccc2c(=O)c3ccccc3oc2n1`, the TGI in experiment [1], in experiment [3], in experiment [4], in [5], in experiment [9] and in experiment [6] was above 100 µM each time. The TGI in [7] and in experiment [8] was above 100 µM in each case.

With `COc1ccccc1/C=C(\C#N)c1ccccc1`, the concentration for total growth inhibition (TGI) in [1] is 42.5 µM; in experiment [2], 66.1 µM; in experiment [3], above 100 µM; in experiment [4] it was above 100 µM; in experiment [9], 44.7 µM; in [6] it was 69.3 µM. The TGI in [7] is above 100 µM; in experiment [8], 60 µM.

With `CCN(CC)CCOCC[C@H]1CC[C@H]2[C@@H]3[C@H](C)Cc4cc(OS(N)(=O)=O)ccc4[C@H]3CC[C@]12C`, the GI50 in [1] was 1.28 µM; in experiment [2] it was 1.54 µM; in experiment [3] it was 1.95 µM; in experiment [4] it was 1.39 µM; in experiment [9] it was 1.52 µM; in experiment [6], 1.67 µM. Further, the GI50 in experiment [7] was 1.31 µM; in experiment [8], 1.24 µM. In addition, the TGI turned out to be 2.6 µM in experiment [1]; 3.96 µM in experiment [2]; 5.33 µM in experiment [3]; 3.5 µM in experiment [4]; 3.39 µM in experiment [9]; 4.12 µM in [6]. The TGI in [7] was determined as 2.66 µM; in experiment [8], 3.13 µM.
